Numbers after ± are expanded uncertainties.
Test: xn = mol fraction of the nth substance listed
Conditions: Liquid, Vibrating tube method

COC(=O)OC [dimethyl carbonate] + CCO
Conditions	mass density [kg/m3]
298.15 K, 20000 kPa, x1 = 0.5507	979.03 ± 1.5
298.15 K, 20000 kPa, x1 = 0.6005	992.03 ± 1.5
298.15 K, 20000 kPa, x1 = 0.6455	1003.31 ± 1.5
298.15 K, 20000 kPa, x1 = 0.6931	1014.9 ± 1.5
298.15 K, 20000 kPa, x1 = 0.7502	1028.23 ± 1.5
298.15 K, 20000 kPa, x1 = 0.8009	1039.69 ± 1.5
298.15 K, 20000 kPa, x1 = 0.8505	1050.49 ± 1.5
298.15 K, 20000 kPa, x1 = 0.9008	1061.05 ± 1.6
298.15 K, 20000 kPa, x1 = 0.9255	1066.12 ± 1.6
298.15 K, 20000 kPa, x1 = 0.9477	1070.6 ± 1.6
298.15 K, 20000 kPa, x1 = 0.9735	1075.75 ± 1.6
298.15 K, 20000 kPa, x1 = 1	1080.9 ± 0.6
298.15 K, 25000 kPa, x1 = 0.0252	814.77 ± 1.4
298.15 K, 25000 kPa, x1 = 0.0506	824.39 ± 1.4
298.15 K, 25000 kPa, x1 = 0.0757	833.72 ± 1.4
298.15 K, 25000 kPa, x1 = 0.1003	842.57 ± 1.4
298.15 K, 25000 kPa, x1 = 0.1508	860.52 ± 1.4
298.15 K, 25000 kPa, x1 = 0.2	877.33 ± 1.4
298.15 K, 25000 kPa, x1 = 0.2547	895.44 ± 1.4
298.15 K, 25000 kPa, x1 = 0.3002	910.03 ± 1.4
298.15 K, 25000 kPa, x1 = 0.3498	925.47 ± 1.4
298.15 K, 25000 kPa, x1 = 0.4	940.64 ± 1.5
298.15 K, 25000 kPa, x1 = 0.449	954.89 ± 1.5
298.15 K, 25000 kPa, x1 = 0.4996	969.11 ± 1.5
298.15 K, 25000 kPa, x1 = 0.5507	982.99 ± 1.5
298.15 K, 25000 kPa, x1 = 0.6005	996 ± 1.5
298.15 K, 25000 kPa, x1 = 0.6455	1007.29 ± 1.5
298.15 K, 25000 kPa, x1 = 0.6931	1018.88 ± 1.5
298.15 K, 25000 kPa, x1 = 0.7502	1032.23 ± 1.5
298.15 K, 25000 kPa, x1 = 0.8009	1043.7 ± 1.5
298.15 K, 25000 kPa, x1 = 0.8505	1054.48 ± 1.6
298.15 K, 25000 kPa, x1 = 0.9008	1065.07 ± 1.6
298.15 K, 25000 kPa, x1 = 0.9255	1070.15 ± 1.6
298.15 K, 25000 kPa, x1 = 0.9477	1074.63 ± 1.6
298.15 K, 25000 kPa, x1 = 0.9735	1079.76 ± 1.6
298.15 K, 25000 kPa, x1 = 1	1084.89 ± 0.61
298.15 K, 30000 kPa, x1 = 0.0252	818.23 ± 1.4
298.15 K, 30000 kPa, x1 = 0.0506	827.85 ± 1.4
298.15 K, 30000 kPa, x1 = 0.0757	837.24 ± 1.4
298.15 K, 30000 kPa, x1 = 0.1003	846.09 ± 1.4
298.15 K, 30000 kPa, x1 = 0.1508	864.11 ± 1.4
298.15 K, 30000 kPa, x1 = 0.2	880.97 ± 1.4
298.15 K, 30000 kPa, x1 = 0.2547	899.14 ± 1.4
298.15 K, 30000 kPa, x1 = 0.3002	913.74 ± 1.4
298.15 K, 30000 kPa, x1 = 0.3498	929.2 ± 1.4
298.15 K, 30000 kPa, x1 = 0.4	944.38 ± 1.5
298.15 K, 30000 kPa, x1 = 0.449	958.68 ± 1.5
298.15 K, 30000 kPa, x1 = 0.4996	972.91 ± 1.5
298.15 K, 30000 kPa, x1 = 0.5507	986.8 ± 1.5
298.15 K, 30000 kPa, x1 = 0.6005	999.82 ± 1.5
298.15 K, 30000 kPa, x1 = 0.6455	1011.17 ± 1.5
298.15 K, 30000 kPa, x1 = 0.6931	1022.77 ± 1.5
298.15 K, 30000 kPa, x1 = 0.7502	1036.12 ± 1.5
298.15 K, 30000 kPa, x1 = 0.8009	1047.6 ± 1.5
298.15 K, 30000 kPa, x1 = 0.8505	1058.39 ± 1.6
298.15 K, 30000 kPa, x1 = 0.9008	1068.99 ± 1.6
298.15 K, 30000 kPa, x1 = 0.9255	1074.07 ± 1.6
298.15 K, 30000 kPa, x1 = 0.9477	1078.55 ± 1.6
298.15 K, 30000 kPa, x1 = 0.9735	1083.68 ± 1.6
298.15 K, 30000 kPa, x1 = 1	1088.82 ± 0.62
298.15 K, 35000 kPa, x1 = 0.0252	821.35 ± 1.4
298.15 K, 35000 kPa, x1 = 0.0506	831.03 ± 1.4
298.15 K, 35000 kPa, x1 = 0.0757	840.42 ± 1.4
298.15 K, 35000 kPa, x1 = 0.1003	849.38 ± 1.4
298.15 K, 35000 kPa, x1 = 0.1508	867.41 ± 1.4
298.15 K, 35000 kPa, x1 = 0.2	884.34 ± 1.4
298.15 K, 35000 kPa, x1 = 0.2547	902.52 ± 1.4
298.15 K, 35000 kPa, x1 = 0.3002	917.13 ± 1.4
298.15 K, 35000 kPa, x1 = 0.3498	932.65 ± 1.5
298.15 K, 35000 kPa, x1 = 0.4	947.84 ± 1.5
298.15 K, 35000 kPa, x1 = 0.449	962.16 ± 1.5
298.15 K, 35000 kPa, x1 = 0.4996	976.39 ± 1.5
298.15 K, 35000 kPa, x1 = 0.5507	990.35 ± 1.5
298.15 K, 35000 kPa, x1 = 0.6005	1003.37 ± 1.5
298.15 K, 35000 kPa, x1 = 0.6455	1014.73 ± 1.5
298.15 K, 35000 kPa, x1 = 0.6931	1026.34 ± 1.5
298.15 K, 35000 kPa, x1 = 0.7502	1039.75 ± 1.5
298.15 K, 35000 kPa, x1 = 0.8009	1051.24 ± 1.6
298.15 K, 35000 kPa, x1 = 0.8505	1062.04 ± 1.6
298.15 K, 35000 kPa, x1 = 0.9008	1072.64 ± 1.6
298.15 K, 35000 kPa, x1 = 0.9255	1077.73 ± 1.6
298.15 K, 35000 kPa, x1 = 0.9477	1082.21 ± 1.6
298.15 K, 35000 kPa, x1 = 0.9735	1087.3 ± 1.6
298.15 K, 35000 kPa, x1 = 1	1092.44 ± 0.64
298.15 K, 40000 kPa, x1 = 0.0252	824.85 ± 1.4
298.15 K, 40000 kPa, x1 = 0.0506	834.55 ± 1.4
298.15 K, 40000 kPa, x1 = 0.0757	843.95 ± 1.4
298.15 K, 40000 kPa, x1 = 0.1003	852.92 ± 1.4
298.15 K, 40000 kPa, x1 = 0.1508	871.01 ± 1.4
298.15 K, 40000 kPa, x1 = 0.2	887.93 ± 1.4
298.15 K, 40000 kPa, x1 = 0.2547	906.18 ± 1.4
298.15 K, 40000 kPa, x1 = 0.3002	920.8 ± 1.4
298.15 K, 40000 kPa, x1 = 0.3498	936.29 ± 1.5
298.15 K, 40000 kPa, x1 = 0.4	951.52 ± 1.5
298.15 K, 40000 kPa, x1 = 0.449	965.81 ± 1.5
298.15 K, 40000 kPa, x1 = 0.4996	980.05 ± 1.5
298.15 K, 40000 kPa, x1 = 0.5507	994.01 ± 1.5
298.15 K, 40000 kPa, x1 = 0.6005	1006.99 ± 1.5
298.15 K, 40000 kPa, x1 = 0.6455	1018.41 ± 1.5
298.15 K, 40000 kPa, x1 = 0.6931	1030.03 ± 1.5
298.15 K, 40000 kPa, x1 = 0.7502	1043.4 ± 1.5
298.15 K, 40000 kPa, x1 = 0.8009	1054.89 ± 1.6
298.15 K, 40000 kPa, x1 = 0.8505	1065.71 ± 1.6
298.15 K, 40000 kPa, x1 = 0.9008	1076.29 ± 1.6
298.15 K, 40000 kPa, x1 = 0.9255	1081.38 ± 1.6
298.15 K, 40000 kPa, x1 = 0.9477	1085.85 ± 1.6
298.15 K, 40000 kPa, x1 = 0.9735	1090.94 ± 1.6
298.15 K, 40000 kPa, x1 = 1	1096.04 ± 0.65
303.15 K, 100 kPa, x1 = 0.0252	790.52 ± 1.4
303.15 K, 100 kPa, x1 = 0.0506	799.8 ± 1.4
303.15 K, 100 kPa, x1 = 0.0757	808.95 ± 1.4
303.15 K, 100 kPa, x1 = 0.1003	817.66 ± 1.4
303.15 K, 100 kPa, x1 = 0.1508	835.2 ± 1.4
303.15 K, 100 kPa, x1 = 0.2	851.75 ± 1.4
303.15 K, 100 kPa, x1 = 0.2547	869.58 ± 1.4
303.15 K, 100 kPa, x1 = 0.3002	883.92 ± 1.4
303.15 K, 100 kPa, x1 = 0.3498	899.15 ± 1.4
303.15 K, 100 kPa, x1 = 0.4	914.01 ± 1.4
303.15 K, 100 kPa, x1 = 0.449	928.1 ± 1.4
303.15 K, 100 kPa, x1 = 0.4996	942.11 ± 1.5
303.15 K, 100 kPa, x1 = 0.5507	955.78 ± 1.5
303.15 K, 100 kPa, x1 = 0.6005	968.59 ± 1.5
303.15 K, 100 kPa, x1 = 0.6455	979.73 ± 1.5
303.15 K, 100 kPa, x1 = 0.6931	991.23 ± 1.5
303.15 K, 100 kPa, x1 = 0.7502	1004.42 ± 1.5
303.15 K, 100 kPa, x1 = 0.8009	1015.74 ± 1.5
303.15 K, 100 kPa, x1 = 0.8505	1026.43 ± 1.5
303.15 K, 100 kPa, x1 = 0.9008	1036.88 ± 1.5
303.15 K, 100 kPa, x1 = 0.9255	1041.88 ± 1.5
303.15 K, 100 kPa, x1 = 0.9477	1046.34 ± 1.5
303.15 K, 100 kPa, x1 = 0.9735	1051.45 ± 1.5
303.15 K, 100 kPa, x1 = 1	1056.61 ± 0.56
303.15 K, 5000 kPa, x1 = 0.0252	794.85 ± 1.4
303.15 K, 5000 kPa, x1 = 0.0506	804.24 ± 1.4
303.15 K, 5000 kPa, x1 = 0.0757	813.38 ± 1.4

From the NIST ThermoML archive (doi:10.1016/j.jct.2019.02.011)
